In ChEMBL document CHEMBL1145696, “Cytotoxic glycosides from Albizia julibrissin” (J Nat Prod, 1997) one finds IC50 data, which are given here for 15 compounds.

SMILES strings stand for the structures.

One may read the IC50 as the concentration that inhibits the measured activity by half. A lower IC50 goes with inhibition by little substance.

For the assay, the system named is KB. The assay is described as follows: Cytotoxicity against human KB cells by MTT assay. The class given is functional, cell-based. For orientation: Formazan colour is commonly taken as a measure of viable cells.
In turn, `C=C[C@](C)(CC/C=C(\C)C(=O)O[C@H]1[C@H](O)[C@@H](O)[C@H](O[C@](C)(C=C)CC/C=C(\C)C(=O)O[C@H]2C[C@]3(C(=O)O[C@@H]4O[C@H](CO)[C@@H](O)[C@H](O)[C@H]4O[C@@H]4O[C@@H](C)[C@H](O[C@@H]5O[C@@H](CO)[C@H](O)[C@H]5O)[C@@H](O[C@@H]5O[C@H](CO)[C@@H](O)[C@H](O)[C@H]5O)[C@H]4O)[C@H](O)C[C@]4(C)C(=CC[C@@H]5[C@@]6(C)CC[C@H](O[C@@H]7O[C@H](CO[C@@H]8O[C@H](C)[C@H](O)[C@H](O)[C@H]8O[C@@H]8OC[C@@H](O)[C@H](O)[C@H]8O)[C@@H](O)[C@H](O)[C@H]7NC(C)=O)C(C)(C)[C@@H]6CC[C@]54C)[C@@H]3CC2(C)C)O[C@@H]1C)O[C@@H]1O[C@H](C)[C@@H](O)[C@H](O)[C@H]1O` [JULIBROSIDE III] returned an IC50 of 900 nM. With `C=C[C@](C)(CC/C=C(\C)C(=O)O[C@H]1[C@H](O)[C@@H](O)[C@H](O[C@](C)(C=C)CC/C=C(\C)C(=O)O[C@H]2C[C@]3(C(=O)O[C@@H]4O[C@H](CO)[C@@H](O)[C@H](O)[C@H]4O[C@@H]4O[C@@H](C)[C@H](O[C@@H]5O[C@@H](CO)[C@H](O)[C@H]5O)[C@@H](O[C@@H]5O[C@H](CO)[C@@H](O)[C@H](O)[C@H]5O)[C@H]4O)[C@H](O)C[C@]4(C)C(=CC[C@@H]5[C@@]6(C)CC[C@H](O[C@@H]7O[C@H](CO[C@@H]8O[C@H](C)[C@H](O)[C@H](O)[C@H]8O[C@@H]8OC[C@@H](O)[C@H](O)[C@H]8O)[C@@H](O)[C@H](O)[C@H]7O)C(C)(C)[C@@H]6CC[C@]54C)[C@@H]3CC2(C)C)O[C@@H]1C)O[C@@H]1O[C@H](C)[C@@H](O)[C@H](O)[C@H]1O` [JULIBROSIDE II] the figure was > 10 µg/mL; with `C=C[C@](C)(CC/C=C(\C)C(=O)O[C@H]1[C@H](O)[C@@H](O)[C@H](O[C@](C)(C=C)CC/C=C(\C)C(=O)O[C@H]2C[C@]3(C(=O)O[C@@H]4O[C@H](CO)[C@@H](O)[C@H](O)[C@H]4O[C@@H]4O[C@@H](C)[C@H](O[C@@H]5O[C@@H](CO)[C@H](O)[C@H]5O)[C@@H](O[C@@H]5O[C@H](CO)[C@@H](O)[C@H](O)[C@H]5O)[C@H]4O)[C@H](O)C[C@]4(C)C(=CC[C@@H]5[C@@]6(C)CC[C@H](O[C@@H]7O[C@H](CO[C@@H]8O[C@H](C)[C@H](O)[C@H](O)[C@H]8O[C@@H]8OC[C@@H](O)[C@H](O)[C@H]8O)[C@@H](O)[C@H](O)[C@H]7O[C@@H]7O[C@H](CO)[C@@H](O)[C@H](O)[C@H]7O)C(C)(C)[C@@H]6CC[C@]54C)[C@@H]3CC2(C)C)O[C@@H]1C)O[C@@H]1O[C@H](C)[C@@H](O)[C@H](O)[C@H]1O` [JULIBROSIDE I], > 10 µg/mL; with `C[C@H]1O[C@@H](OC[C@H]2O[C@@H](O[C@H]3CC[C@]4(C)[C@H]5CC=C6[C@@H]7CC(C)(C)[C@@H]8C[C@]7(C(=O)O8)[C@H](O)C[C@@]6(C)[C@]5(C)CC[C@H]4C3(C)C)[C@H](O[C@@H]3O[C@H](CO)[C@@H](O)[C@H](O)[C@H]3O)[C@@H](O)[C@@H]2O)[C@H](O[C@@H]2OC[C@@H](O)[C@H](O)[C@H]2O)[C@@H](O)[C@H]1O` [PORSAPOGENIN 5], > 10 µg/mL. `C[C@H]1O[C@@H](OC[C@H]2O[C@@H](O[C@H]3CC[C@]4(C)[C@H]5CC=C6[C@@H]7CC(C)(C)[C@@H]8C[C@]7(C(=O)O8)[C@H](O)C[C@@]6(C)[C@]5(C)CC[C@H]4C3(C)C)[C@H](O)[C@@H](O)[C@@H]2O)[C@H](O[C@@H]2OC[C@@H](O)[C@H](O)[C@H]2O)[C@@H](O)[C@H]1O` [PORSAPOGENIN 6]: the concentration for half-maximal inhibition (IC50) is > 10 µg/mL. Next, `CC(=O)N[C@H]1[C@H](O[C@H]2CC[C@]3(C)[C@H]4CC=C5[C@@H]6CC(C)(C)[C@@H]7C[C@]6(C(=O)O7)[C@H](O)C[C@@]5(C)[C@]4(C)CC[C@H]3C2(C)C)O[C@H](CO[C@@H]2O[C@H](C)[C@H](O)[C@H](O)[C@H]2O[C@@H]2OC[C@@H](O)[C@H](O)[C@H]2O)[C@@H](O)[C@@H]1O` [PORSAPOGENIN 7]: > 10 µg/mL. `C=C[C@](C)(CC/C=C(\C)C(=O)O[C@H]1C[C@]2(C(=O)O[C@@H]3O[C@H](CO)[C@@H](O)[C@H](O)[C@H]3O[C@@H]3O[C@@H](C)[C@H](O[C@@H]4O[C@@H](CO)[C@H](O)[C@H]4O)[C@@H](O[C@@H]4O[C@H](CO)[C@@H](O)[C@H](O)[C@H]4O)[C@H]3O)[C@H](O)C[C@]3(C)C(=CC[C@@H]4[C@@]5(C)CC[C@H](O[C@@H]6O[C@H](CO[C@@H]7O[C@H](C)[C@H](O)[C@H](O)[C@H]7O[C@@H]7OC[C@@H](O)[C@H](O)[C@H]7O)[C@@H](O)[C@H](O)[C@H]6O[C@@H]6O[C@H](CO)[C@@H](O)[C@H](O)[C@H]6O)C(C)(C)[C@@H]5CC[C@]43C)[C@@H]2CC1(C)C)O[C@@H]1O[C@H](C)[C@@H](O)[C@H](O)[C@H]1O` [PORSAPOGENIN 8] registered an IC50 of 4500 nM. Next, `C=C[C@](C)(CC/C=C(\C)C(=O)O[C@H]1C[C@]2(C(=O)O[C@@H]3O[C@H](CO)[C@@H](O)[C@H](O)[C@H]3O[C@@H]3O[C@@H](C)[C@H](O[C@@H]4O[C@@H](CO)[C@H](O)[C@H]4O)[C@@H](O[C@@H]4O[C@H](CO)[C@@H](O)[C@H](O)[C@H]4O)[C@H]3O)[C@H](O)C[C@]3(C)C(=CC[C@@H]4[C@@]5(C)CC[C@H](O[C@@H]6O[C@H](CO[C@@H]7O[C@H](C)[C@H](O)[C@H](O)[C@H]7O[C@@H]7OC[C@@H](O)[C@H](O)[C@H]7O)[C@@H](O)[C@H](O)[C@H]6O)C(C)(C)[C@@H]5CC[C@]43C)[C@@H]2CC1(C)C)O[C@@H]1O[C@H](C)[C@@H](O)[C@H](O)[C@H]1O` [PORSAPOGENIN 9]: 1600 nM; `C[C@H]1O[C@@H](OC[C@H]2O[C@@H](O[C@H]3CC[C@]4(C)[C@H]5CC=C6[C@@H]7CC(C)(C)[C@@H](O)C[C@]7(C(=O)O)[C@H](O)C[C@@]6(C)[C@]5(C)CC[C@H]4C3(C)C)[C@H](O)[C@@H](O)[C@@H]2O)[C@H](O[C@@H]2OC[C@@H](O)[C@H](O)[C@H]2O)[C@@H](O)[C@H]1O` [PROSAPOGENIN 1]: > 10 µg/mL.

Take `CC(=O)N[C@H]1[C@H](O[C@H]2CC[C@]3(C)[C@H]4CC=C5[C@@H]6CC(C)(C)[C@@H](O)C[C@]6(C(=O)O)[C@H](O)C[C@@]5(C)[C@]4(C)CC[C@H]3C2(C)C)O[C@H](CO[C@@H]2OC[C@H](O)[C@H](O)[C@H]2O[C@@H]2OC[C@@H](O)[C@H](O)[C@H]2O)[C@@H](O)[C@@H]1O` [PROSAPOGENIN 2]: the IC50 is > 10 µg/mL. Next, `CC1(C)C[C@H]2C3=CC[C@@H]4[C@@]5(C)CC[C@H](O[C@@H]6O[C@H](CO[C@@H]7OC[C@H](O)[C@H](O)[C@H]7O[C@@H]7OC[C@@H](O)[C@H](O)[C@H]7O)[C@@H](O)[C@H](O)[C@H]6O)C(C)(C)[C@@H]5CC[C@@]4(C)[C@]3(C)C[C@@H](O)[C@@]23C[C@@H]1OC3=O` [PROSAPOGENIN 3]: > 10 µg/mL. As to `CC(=O)N[C@H]1[C@H](O[C@H]2CC[C@]3(C)[C@H]4CC=C5[C@@H]6CC(C)(C)[C@@H]7C[C@]6(C(=O)O7)[C@H](O)C[C@@]5(C)[C@]4(C)CC[C@H]3C2(C)C)O[C@H](CO[C@@H]2OC[C@H](O)[C@H](O)[C@H]2O[C@@H]2OC[C@@H](O)[C@H](O)[C@H]2O)[C@@H](O)[C@@H]1O` [PROSAPOGENIN 4], the IC50 was > 10 µg/mL.

Consider `C=C[C@](C)(CC/C=C(\CO)C(=O)O[C@H]1C[C@]2(C(=O)O[C@@H]3O[C@H](CO)[C@@H](O)[C@H](O)[C@H]3O[C@@H]3O[C@@H](C)[C@H](O[C@@H]4O[C@@H](CO)[C@H](O)[C@H]4O)[C@@H](O[C@@H]4O[C@H](CO)[C@@H](O)[C@H](O)[C@H]4O)[C@H]3O)[C@H](O)C[C@]3(C)C(=CC[C@@H]4[C@@]5(C)CC[C@H](O[C@@H]6O[C@H](CO[C@@H]7O[C@H](C)[C@H](O)[C@H](O)[C@H]7O[C@@H]7OC[C@@H](O)[C@H](O)[C@H]7O)[C@@H](O)[C@H](O)[C@H]6O)C(C)(C)[C@@H]5CC[C@]43C)[C@@H]2CC1(C)C)O[C@@H]1O[C@H](C)[C@@H](O)[C@H](O)[C@H]1O` [PROSAPOGENIN 10], for which half-maximal inhibition (IC50) was put at 2000 nM. With `C=C[C@](C)(CC/C=C(\C)C(=O)O[C@H]1C[C@]2(C(=O)O[C@@H]3O[C@H](CO)[C@@H](O)[C@H](O)[C@H]3O[C@@H]3O[C@@H](C)[C@H](O[C@@H]4O[C@@H](CO)[C@H](O)[C@H]4O)[C@@H](O[C@@H]4O[C@H](CO)[C@@H](O)[C@H](O)[C@H]4O)[C@H]3O)CC[C@]3(C)C(=CC[C@@H]4[C@@]5(C)CC[C@H](O[C@@H]6O[C@H](CO[C@@H]7O[C@H](C)[C@H](O)[C@H](O)[C@H]7O[C@@H]7OC[C@@H](O)[C@H](O)[C@H]7O)[C@@H](O)[C@H](O)[C@H]6O)C(C)(C)[C@@H]5CC[C@]43C)[C@@H]2CC1(C)C)O[C@@H]1O[C@H](C)[C@@H](O)[C@H](O)[C@H]1O` [PROSAPOGENIN 11] the figure was 1600 nM; with `C=C[C@](C)(CC/C=C(\C)C(=O)O[C@H]1C[C@]2(C(=O)O[C@@H]3O[C@H](CO)[C@@H](O)[C@H](O)[C@H]3O[C@@H]3O[C@@H](C)[C@H](O[C@@H]4O[C@@H](CO)[C@H](O)[C@H]4O)[C@@H](O[C@@H]4O[C@H](CO)[C@@H](O)[C@H](O)[C@H]4O)[C@H]3O)CC[C@]3(C)C(=CC[C@@H]4[C@@]5(C)CC[C@H](O[C@@H]6O[C@H](CO[C@@H]7O[C@H](C)[C@H](O)[C@H](O)[C@H]7O[C@@H]7OC[C@@H](O)[C@H](O)[C@H]7O)[C@@H](O)[C@H](O)[C@H]6OC6O[C@H](CO)[C@@H](O)[C@H](O)[C@H]6O)C(C)(C)[C@@H]5CC[C@]43C)[C@@H]2CC1(C)C)O[C@@H]1O[C@H](C)[C@@H](O)[C@H](O)[C@H]1O` (stereo not given in full) [PROSAPOGENIN 12], > 10 µg/mL.
